Tests used:
[1] = test system: patients suffering from migraine; assay: Pilot double-blind placebo-controlled crossover trial, prophylactic effect in migraine; assay type: in vivo, human
Protocol: A study in which the effects of the angiotensin II type 1 receptor antagonist candesartan cilexetil (Atacand®) is compared to that of placebo, was carried out to explore the feasability of giving candesartan cilexetil to patients suffering from, or susceptible to, vascular headache conditions, and especially migraine.
The pilot study was a double-blind placebo-controlled crossover trial on the prophylactic effect of the AT II antagonist candesartan cilexetil performed in patients suffering from migraine.
The study provides preliminary data on the feasibility of administering candesartan cilexetil for preventing migraine. It also provides preliminary data on useful concentrations of candesartan cilexetil in this use.

[2] = test system: patients having mild-to-moderate hypertension; conditions: hypertensive patients, versus placebo; cited from earlier work

**Q.** Which “relief of symptoms (migraine)” value ([1]; one patient with a medical history of migraine, treating themself with Atacand 16 mg, relief subjectively noted) does the source give for CCOc1nc2cccc(C(=O)OC(C)OC(=O)OC3CCCCC3)c2n1Cc1ccc(-c2ccccc2-c2nn[nH]n2)cc1 (stereo not drawn) [candesartan cilexetil] here?
**A.** significant relief of symptoms

**Q.** What about the “relief of symptoms (migraine)” value ([1]; the other patient with a medical history of migraine, relief subjectively noted after treatment with Atacand) of the same compound?
**A.** significant relief of symptoms

**Q.** Which incidence of headache [2] does the source give for CCCCC1=NC2(CCCC2)C(=O)N1Cc1ccc(-c2ccccc2-c2nnn[nH]2)cc1 [irbesartan] here?
**A.** significant reduction

From patent publication US7872035B2, “Angiotensin II antagonists” (AstraZeneca AB, priority 2001, dated 2011)
